Experiments:
Assay type in all cases: functional
[1] = tested on: Malme-3M; experiment: Growth inhibition of human MALME-3M cells assessed as cell growth at 10^-4 M after 48 hrs by sulforhodamine B assay; conditions: read-out: Activity
[2] = tested on: CCRF-CEM; experiment: Growth inhibition of human CCRF-CEM cells assessed as cell growth at 10^-7 M after 48 hrs by sulforhodamine B assay; conditions: read-out: Activity
[3] = tested on: U-251; experiment: Growth inhibition of human U251 cells assessed as cell growth at 10^-7 M after 48 hrs by sulforhodamine B assay; conditions: U-251, 48 h, read-out: Activity
[4] = tested on: SK-MEL-5; experiment: Growth inhibition of human SK-MEL-5 cells assessed as cell growth at 10^-4 M after 48 hrs by sulforhodamine B assay; conditions: SK-MEL-5, 48 h, read-out: Activity
[5] = tested on: SW-620; experiment: Growth inhibition of human SW620 cells assessed as cell growth at 10^-7 M after 48 hrs by sulforhodamine B assay; conditions: SW-620, 48 h, read-out: Activity
[6] = tested on: M14; experiment: Growth inhibition of human M14 cells assessed as cell growth at 10^-7 M after 48 hrs by sulforhodamine B assay; conditions: M14, 48 h, read-out: Activity
[7] = tested on: SK-MEL-2; experiment: Growth inhibition of human SK-MEL-2 cells assessed as cell growth at 10^-7 M after 48 hrs by sulforhodamine B assay; conditions: SK-MEL-2, 48 h, read-out: Activity
[8] = tested on: NCI-H522; experiment: Growth inhibition of human NCI-H522 cells assessed as cell growth at 10^-6 M after 48 hrs by sulforhodamine B assay; conditions: NCI-H522, 48 h, read-out: Activity
[9] = Growth inhibition of human OVCAR3 cells assessed as cell growth at 10^-4 M after 48 hrs by sulforhodamine B assay; conditions: OVCAR-3, 48 h, read-out: Activity
[10] = Growth inhibition of human RXF393 cells assessed as cell growth at 10^-6 M after 48 hrs by sulforhodamine B assay; conditions: RXF 393, 48 h, read-out: Activity
[11] = tested on: CCRF-CEM; experiment: Growth inhibition of human CCRF-CEM cells assessed as cell growth at 10^-8 M after 48 hrs by sulforhodamine B assay; conditions: for growth at 0.01 µM: read-out: Activity; for CC50: read-out: pLC50 (the source's name) (converted); for TGI: read-out: pTGI (converted)
[12] = tested on: SNB-75; experiment: Growth inhibition of human SNB75 cells after 48 hrs by sulforhodamine B assay; conditions: SNB-75, 48 h; for CC50: read-out: LC50 (the source's name)
[13] = tested on: NCI-H522; experiment: Growth inhibition of human NCI-H522 cells assessed as cell growth at 10^-7 M after 48 hrs by sulforhodamine B assay; conditions: NCI-H522, 48 h, read-out: Activity
[14] = tested on: SK-MEL-28; experiment: Growth inhibition of human SK-MEL-28 cells assessed as cell growth at 10^-4 M after 48 hrs by sulforhodamine B assay; conditions: SK-MEL-28, 48 h, read-out: Activity
[15] = Growth inhibition of human UACC62 cells assessed as cell growth at 10^-6 M after 48 hrs by sulforhodamine B assay; conditions: UACC-62, 48 h, read-out: Activity
[16] = tested on: SN12C; experiment: Growth inhibition of human SN12C cells assessed as cell growth at 10^-8 M after 48 hrs by sulforhodamine B assay; conditions: for growth at 0.01 µM: read-out: Activity; for TGI: read-out: pTGI (converted)
[17] = tested on: MDA-MB-468; experiment: Growth inhibition of human MDA-MB-468 cells assessed as cell growth at 10^-8 M after 48 hrs by sulforhodamine B assay; conditions: MDA-MB-468, 48 h; for growth at 0.01 µM: read-out: Activity; for CC50: read-out: pLC50 (the source's name) (converted); for TGI: read-out: pTGI (converted)
[18] = Growth inhibition of human OVCAR5 cells after 48 hrs by sulforhodamine B assay; conditions: OVCAR-5, 48 h; for CC50: read-out: LC50 (the source's name)
[19] = tested on: NCI-H460; experiment: Growth inhibition of human NCI-H460 cells assessed as cell growth at 10^-8 M after 48 hrs by sulforhodamine B assay; conditions: NCI-H460, 48 h; for growth at 0.01 µM: read-out: Activity; for TGI: read-out: pTGI (converted)
[20] = tested on: U-251; experiment: Growth inhibition of human U251 cells assessed as cell growth at 10^-8 M after 48 hrs by sulforhodamine B assay; conditions: U-251, 48 h; for growth at 0.01 µM: read-out: Activity; for TGI: read-out: pTGI (converted)
[21] = Growth inhibition of human MOLT4 cells assessed as cell growth at 10^-4 M after 48 hrs by sulforhodamine B assay; conditions: MOLT-4, 48 h, read-out: Activity
[22] = Growth inhibition of human NCI-ADR-RES cells assessed as cell growth at 10^-4 M after 48 hrs by sulforhodamine B assay; conditions: read-out: Activity
[23] = tested on: MDA-MB-435; experiment: Growth inhibition of human MDA-MB-435 cells assessed as cell growth at 10^-4 M after 48 hrs by sulforhodamine B assay; conditions: MDA-MB-435, 48 h, read-out: Activity
[24] = Growth inhibition of human BT549 cells assessed as cell growth at 10^-8 M after 48 hrs by sulforhodamine B assay; conditions: BT-549, 48 h; for growth at 0.01 µM: read-out: Activity; for TGI: read-out: pTGI (converted)
[25] = tested on: SNB-75; experiment: Growth inhibition of human SNB75 cells assessed as cell growth at 10^-6 M after 48 hrs by sulforhodamine B assay; conditions: SNB-75, 48 h, read-out: Activity
[26] = Growth inhibition of human OVCAR3 cells assessed as cell growth at 10^-8 M after 48 hrs by sulforhodamine B assay; conditions: OVCAR-3, 48 h; for growth at 0.01 µM: read-out: Activity; for TGI: read-out: pTGI (converted)
[27] = tested on: ACHN; experiment: Growth inhibition of human ACHN cells assessed as cell growth at 10^-4 M after 48 hrs by sulforhodamine B assay; conditions: read-out: Activity
[28] = Growth inhibition of human UACC257 cells assessed as cell growth at 10^-4 M after 48 hrs by sulforhodamine B assay; conditions: UACC-257, 48 h, read-out: Activity
[29] = Growth inhibition of human OVCAR4 cells assessed as cell growth at 10^-6 M after 48 hrs by sulforhodamine B assay; conditions: OVCAR-4, 48 h, read-out: Activity
[30] = tested on: SR; experiment: Growth inhibition of human SR cells assessed as cell growth at 10^-8 M after 48 hrs by sulforhodamine B assay; conditions: for growth at 0.01 µM: read-out: Activity; for TGI: read-out: pTGI (converted)
[31] = tested on: SNB-19; experiment: Growth inhibition of human SNB19 cells assessed as cell growth at 10^-6 M after 48 hrs by sulforhodamine B assay; conditions: SNB-19, 48 h, read-out: Activity
[32] = Growth inhibition of human MOLT4 cells assessed as cell growth at 10^-6 M after 48 hrs by sulforhodamine B assay; conditions: MOLT-4, 48 h, read-out: Activity
[33] = tested on: HL-60(TB); experiment: Growth inhibition of human HL-60(TB) cells assessed as cell growth at 10^-6 M after 48 hrs by sulforhodamine B assay; conditions: HL-60, 48 h, read-out: Activity

SMILES: O=C1/C(=C/c2ccc(Cl)cc2Cl)CN(S(=O)(=O)c2ccccc2)C/C1=C\c1ccc(Cl)cc1Cl
- growth at 100 µM [1]: 22%
- growth at 0.1 µM [2]: 92%
- growth at 0.1 µM [3]: 86%
- growth at 100 µM [4]: 60%
- growth at 0.1 µM [5]: 96%
- growth at 0.1 µM [6]: 104%
- growth at 0.1 µM [7]: 111%
- growth at 1 µM [8]: 47%
- growth at 100 µM [9]: -65%
- growth at 1 µM [10]: 54%
- GI50 [11]: 288 nM
- growth at 0.01 µM [11]: 98%
- CC50 [11]: > 100000 nM
- TGI [11]: 1000 nM
- GI50 [12]: 432 nM
- TGI [12]: 7290 nM
- CC50 [12]: > 100000 nM
- growth at 0.1 µM [13]: 97%
- growth at 100 µM [14]: 42%
- growth at 1 µM [15]: 45%
- GI50 [16]: 245 nM
- LC50 [16]: > 100000 nM
- growth at 0.01 µM [16]: 93%
- TGI [16]: 724 nM
- GI50 [17]: 1120 nM
- growth at 0.01 µM [17]: 90%
- CC50 [17]: > 100000 nM
- TGI [17]: 3890 nM
- GI50 [18]: 2130 nM
- TGI [18]: 7430 nM
- CC50 [18]: > 100000 nM
- GI50 [19]: 209 nM
- LC50 [19]: 955 nM
- growth at 0.01 µM [19]: 103%
- TGI [19]: 447 nM
- GI50 [20]: 174 nM
- LC50 [20]: 813 nM
- growth at 0.01 µM [20]: 96%
- TGI [20]: 372 nM
- growth at 100 µM [21]: -11%
- growth at 100 µM [22]: 21%
- growth at 100 µM [23]: -9%
- GI50 [24]: 977 nM
- LC50 [24]: > 100000 nM
- growth at 0.01 µM [24]: 106%
- TGI [24]: 4170 nM
- growth at 1 µM [25]: 38%
- GI50 [26]: 309 nM
- LC50 [26]: 5010 nM
- growth at 0.01 µM [26]: 112%
- TGI [26]: 813 nM
- growth at 100 µM [27]: -17%
- growth at 100 µM [28]: 42%
- growth at 1 µM [29]: 10%
- GI50 [30]: 186 nM
- LC50 [30]: > 100000 nM
- growth at 0.01 µM [30]: 93%
- TGI [30]: 871 nM
- growth at 1 µM [31]: 10%
- growth at 1 µM [32]: 34%
- growth at 1 µM [33]: 36%

SMILES: Cc1ccc(S(=O)(=O)N2C/C(=C\c3cc(F)cc(F)c3)C(=O)/C(=C/c3cc(F)cc(F)c3)C2)cc1
- growth at 100 µM [1]: -78%
- growth at 0.1 µM [2]: 44%
- growth at 0.1 µM [3]: 80%
- growth at 100 µM [4]: -97%
- growth at 0.1 µM [5]: 42%
- growth at 0.1 µM [6]: 98%
- growth at 0.1 µM [7]: 112%
- growth at 1 µM [8]: -2%
- growth at 100 µM [9]: -98%
- growth at 1 µM [10]: 44%
- GI50 [11]: 74.1 nM
- growth at 0.01 µM [11]: 95%
- CC50 [11]: > 100000 nM
- TGI [11]: 955 nM
- GI50 [12]: 1990 nM
- TGI [12]: 5900 nM
- CC50 [12]: 26200 nM
- growth at 0.1 µM [13]: 102%
- growth at 100 µM [14]: -98%
- growth at 1 µM [15]: -38%
- GI50 [16]: 339 nM
- LC50 [16]: 4270 nM
- growth at 0.01 µM [16]: 95%
- TGI [16]: 1320 nM
- GI50 [17]: 347 nM
- growth at 0.01 µM [17]: 90%
- CC50 [17]: 5750 nM
- TGI [17]: 1700 nM
- GI50 [18]: 1020 nM
- TGI [18]: 2750 nM
- CC50 [18]: 7400 nM
- GI50 [19]: 832 nM
- LC50 [19]: 9120 nM
- growth at 0.01 µM [19]: 103%
- TGI [19]: 2880 nM
- GI50 [20]: 186 nM
- LC50 [20]: 2040 nM
- growth at 0.01 µM [20]: 94%
- TGI [20]: 525 nM
- growth at 100 µM [21]: -27%
- growth at 100 µM [22]: -57%
- growth at 100 µM [23]: -83%
- GI50 [24]: 339 nM
- LC50 [24]: 3550 nM
- growth at 0.01 µM [24]: 102%
- TGI [24]: 933 nM
- growth at 1 µM [25]: 82%
- GI50 [26]: 437 nM
- LC50 [26]: 4570 nM
- growth at 0.01 µM [26]: 110%
- TGI [26]: 1450 nM
- growth at 100 µM [27]: -94%
- growth at 100 µM [28]: -84%
- growth at 1 µM [29]: 26%
- GI50 [30]: 34.7 nM
- LC50 [30]: > 100000 nM
- growth at 0.01 µM [30]: 93%
- TGI [30]: 251 nM
- growth at 1 µM [31]: -12%
- growth at 1 µM [32]: 8%
- growth at 1 µM [33]: 4%

Reference: ChEMBL document CHEMBL3217615, “Novel 3,5-bis(arylidiene)-4-piperidone based monocarbonyl analogs of curcumin: anticancer activity evaluation and mode of action study” (2014)
